Laboratory results: patent US20150174213A1, “COMPOSITIONS COMPRISING SULFORAPHANE OR A SULFORAPHANE PRECURSOR AND URSOLIC ACID” (Nutramax Laboratories, Inc., priority 2012, published 2015)

Assays:
mammary epithelium = conditions: oral administration, Sprague-Dawley rats; cited from earlier work
mammary tumors = conditions: Sprague-Dawley rats; cited from earlier work
myrosinase [1] = experiment: Equimolar conversion of glucoraphanin to sulforaphane by myrosinase with ascorbic acid (Example 4); format: biochemical, broccoli; conditions: control sample, without ascorbic acid
Description: A two-part experiment was conducted to further elucidate the role of ascorbic acid in modulating myrosinase activity. […] A control sample contained no ascorbic acid, and the enzymatic conversion proceeded unassisted by a co-factor. PART 1. […] PART 2. While keeping the amount of broccoli seed extract fixed at 250 mg, the concentration of ascorbic acid was varied from 0.4 mmol/Liter to 3.8 mmol/Liter.

myrosinase [2] = experiment: Conversion of glucoraphanin to sulforaphane in Simulated Intestinal Fluid (Example 5); format: biochemical, broccoli; conditions: 0.25 to 1.00 mmol/Liter ascorbic acid, 38° C., FIG. 4
Description: Simulated Intestinal Fluid (SIF) powder, a commercially supplied concentrate closely approximating the human intestinal content in terms of composition, pH and ionic strength, was used. The experiment utilized a USP Dissolution Apparatus 2 (paddles), where into six dissolution vessels 500 mL of Simulated Intestinal Fluid was dispensed, along with 150 mg of freeze-dried broccoli sprout powder as a source of myrosinase. […] Aliquots were withdrawn every 15 minutes, and assayed for sulforaphane.

## C[S+]([O-])CCCCN=C=S (centres unmarked) [SFN, 1-isothiocyanato-4-methylsulfinylbutane]
Mammary epithelium
  Elevated immunostaining of the heme oxygenase-1 (HO-1) enzyme: 4 fold
  Increase in NAD(P)H:quinine oxidoreductase (NQO1) enzymatic activity: 3 fold
Mammary tumors
  Blocking the formation of mammary tumors: effective

## C[S+]([O-])CCCC/C(=N\OS(=O)(=O)O)S[C@@H]1O[C@H](CO)[C@@H](O)[C@H](O)[C@H]1O (some centres unmarked) [glucoraphanin, 4-methylsulfinylbutyl glucosinolate]
Myrosinase [1]
  Stoichiometry of conversion of glucoraphanin to sulforaphane: equimolar conversion

## O=C1O[C@H]([C@@H](O)CO)C(O)=C1O [Ascorbic Acid, Ascorbic acid]
Myrosinase [2]
  Yield of sulforaphane versus ascorbic acid concentration: direct correlation between larger yield of sulforaphane and higher concentrations of ascorbic acid
